Data taken from PubChem BioAssay (NCI).
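Exposure lasted 48 hours, with cells grown in 96-well plates and compounds tested at five concentrations. GI50 is the concentration that inhibits growth by half. At the TGI there is no net growth.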

Assays:
Experiment in all cases: NCI tumour cell line growth inhibition, 48 h
P388 leukemia = test system: P388 leukemia
P388/ADR leukemia = test system: P388/ADR leukemia
SN12K1 renal = test system: SN12K1 renal
RXF-631 renal = test system: RXF-631 renal
BT-549 breast = test system: BT-549 breast
MDA-N = test system: MDA-N

## O=C(O)/C=C/c1cnc[nH]1
P388 leukemia
  GI50: > 500 µM
  TGI: > 500 µM
P388/ADR leukemia
  TGI: > 500 µM
SN12K1 renal
  TGI: > 500 µM

## COc1ccc2c(c1)O[C@H]1c3ccc(O)cc3OC[C@@H]21
RXF-631 renal
  TGI: > 100 µM

## CCSc1nc(N2CCCCC2)c2cn[nH]c2n1
BT-549 breast
  GI50: 20.1 µM
  TGI: 77.5 µM

## CCOC(=O)C1(C(=O)OCC)CSC1
MDA-N
  TGI: > 100 µM

## CC(=O)NC(CCCCNC(=O)OC(C)(C)C)C(=O)O (stereo not given)
MDA-N
  TGI: > 100 µM

## CCOc1ccc(N=Nc2ccc3oc(=O)c(/C(C)=N\NC(=O)CC(=O)Nc4ccc(Cl)cc4)cc3c2)cc1
RXF-631 renal
  TGI: 45.5 µM
